Drawing on PubChem BioAssay AID743510 (Broad Institute, 2014), this text covers IC50 for 26 molecules.

For the assay, the target named is Bursicon receptor LGR2 (rickets), Drosophila melanogaster. The assay can be described thus: inhibition of bursicon-stimulated LGR2 cAMP signaling – cell-based, HEK293, CRE-luciferase, beta-gal normalized, dry powder, dose response (AID 743510). The note with it: antagonist luminescence.

Active and inactive are the calls of the source.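 Rule for the calls: active = compounds that block bursicon-driven reporter light with an IC50 below a set limit; inactive = IC50 above that limit.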

By IC50 is commonly meant the concentration that inhibits the measured activity by half. As for `C[C@@H]1CCCCO[C@@H](CN(C)C(=O)Nc2cccc3ccccc23)[C@@H](C)CN([C@@H](C)CO)C(=O)c2cc(NC(=O)C3CCCCC3)ccc2O1`, the IC50 was > 35 µM (inactive).
In the case of `C[C@H](CO)N1C[C@H](C)[C@H](CN(C)C(=O)Nc2ccc3ccccc3c2)OCCCC[C@H](C)Oc2ccc(NC(=O)C3CCCCC3)cc2C1=O` it was < 35 µM.
In the case of `Cc1ccc(NC(=O)N(C)C[C@@H]2OCCCC[C@H](C)Oc3ccc(NC(=O)C4CCCCC4)cc3C(=O)N([C@H](C)CO)C[C@@H]2C)cc1` it was < 35 µM.
Then `C[C@@H]1CN([C@@H](C)CO)C(=O)c2cc(NC(=O)C3CCCCC3)ccc2O[C@@H](C)CCCCO[C@H]1CN(C)C(=O)Nc1cccc2ccccc12`, with < 35 µM; and `C[C@@H]1CN([C@H](C)CO)C(=O)c2cc(NC(=O)C3CCCCC3)ccc2O[C@@H](C)CCCCO[C@H]1CN(C)C(=O)Nc1cccc2ccccc12`, with > 35 µM (inactive); and `C[C@H](CO)N1C[C@H](C)[C@H](CN(C)C(=O)Nc2ccccc2F)OCCCC[C@H](C)Oc2ccc(NC(=O)C3CCCCC3)cc2C1=O`, with < 35 µM.
`C[C@@H]1CCCCO[C@H](CN(C)C(=O)Nc2cccc3ccccc23)[C@@H](C)CN([C@@H](C)CO)C(=O)c2cc(NC(=O)C3CCCCC3)ccc2O1`: the IC50 was > 35 µM (inactive).
For the molecule `C[C@H](CO)N1C[C@H](C)[C@H](CN(C)C(=O)Nc2cccc(F)c2)OCCCC[C@H](C)Oc2ccc(NC(=O)C3CCCCC3)cc2C1=O`, the IC50 is < 35 µM.
Then `C[C@H](CO)N1C[C@H](C)[C@@H](CN(C)C(=O)Nc2cccc3ccccc23)OCCCC[C@H](C)Oc2ccc(NC(=O)C3CCCCC3)cc2C1=O`, with > 35 µM (inactive); and `C[C@H]1CCCCO[C@@H](CN(C)C(=O)Nc2cccc3ccccc23)[C@@H](C)CN([C@@H](C)CO)C(=O)c2cc(NC(=O)C3CCCCC3)ccc2O1`, with < 35 µM; and `C[C@H]1CCCCO[C@H](CN(C)C(=O)Nc2cccc3ccccc23)[C@@H](C)CN([C@@H](C)CO)C(=O)c2cc(NC(=O)C3CCCCC3)ccc2O1`, with > 35 µM (inactive).
As to `C[C@@H]1CCCCO[C@@H](CN(C)C(=O)Nc2cccc3ccccc23)[C@@H](C)CN([C@H](C)CO)C(=O)c2cc(NC(=O)C3CCCCC3)ccc2O1`, the IC50 was > 35 µM (inactive).
In the case of `CC(=O)Nc1ccc2c(c1)C(=O)N([C@H](C)CO)C[C@H](C)[C@H](CN(C)C(=O)Nc1ccc(F)cc1)OCCCC[C@H](C)O2` it was > 35 µM (inactive).
Turning to `C[C@@H]1CCCCO[C@H](CN(C)C(=O)Nc2cccc3ccccc23)[C@H](C)CN([C@@H](C)CO)C(=O)c2cc(NC(=O)C3CCCCC3)ccc2O1`, the IC50 is > 35 µM (inactive).
For `C[C@@H]1CN([C@H](C)CO)C(=O)c2cc(NC(=O)C3CCCCC3)ccc2O[C@@H](C)CCCCO[C@@H]1CN(C)C(=O)Nc1cccc2ccccc12`, the IC50 is > 35 µM (inactive).
Then `C[C@@H]1CCCCO[C@H](CN(C)C(=O)Nc2cccc3ccccc23)[C@@H](C)CN([C@H](C)CO)C(=O)c2cc(NC(=O)C3CCCCC3)ccc2O1`, with > 35 µM (inactive); and `C[C@H](CO)N1C[C@H](C)[C@H](CN(C)C(=O)Nc2ccc(F)cc2)OCCCC[C@H](C)Oc2ccc(NC(=O)C3CCCCCC3)cc2C1=O`, with < 35 µM; and `C[C@H](CO)N1C[C@H](C)[C@H](CN(C)C(=O)Nc2ccc(F)cc2)OCCCC[C@H](C)Oc2ccc(NC(=O)C3CC3)cc2C1=O`, with > 35 µM (inactive).
In the case of `C[C@@H]1CCCCO[C@@H](CN(C)C(=O)Nc2cccc3ccccc23)[C@H](C)CN([C@@H](C)CO)C(=O)c2cc(NC(=O)C3CCCCC3)ccc2O1` it was > 35 µM (inactive).
Then `C[C@H](CO)N1C[C@H](C)[C@H](CN(C)C(=O)Nc2ccc(F)cc2)OCCCC[C@H](C)Oc2ccc(NC(=O)C3CCOCC3)cc2C1=O`, with > 35 µM (inactive); and `C[C@H](CO)N1C[C@H](C)[C@H](CN(C)C(=O)Nc2cccc3ccccc23)OCCCC[C@H](C)Oc2ccc(NC(=O)C3CCCCC3)cc2C1=O`, with < 35 µM; and `C[C@@H]1CCCCO[C@@H](CN(C)C(=O)Nc2cccc3ccccc23)[C@H](C)CN([C@H](C)CO)C(=O)c2cc(NC(=O)C3CCCCC3)ccc2O1`, with > 35 µM (inactive).
For `C[C@@H]1CN([C@@H](C)CO)C(=O)c2cc(NC(=O)C3CCCCC3)ccc2O[C@@H](C)CCCCO[C@@H]1CN(C)C(=O)Nc1cccc2ccccc12`, the IC50 is > 35 µM (inactive).
In the case of `C[C@H](CO)N1C[C@H](C)[C@H](CN(C)C(=O)Nc2ccc(Cl)cc2)OCCCC[C@H](C)Oc2ccc(NC(=O)C3CCCCC3)cc2C1=O` it was < 35 µM; in that of `C[C@H](CO)N1C[C@H](C)[C@H](CN(C)C(=O)Nc2ccc(F)cc2)OCCCC[C@H](C)Oc2ccc(NC(=O)C3CCCC3)cc2C1=O`, < 35 µM; in that of `C[C@@H]1CCCCO[C@H](CN(C)C(=O)Nc2cccc3ccccc23)[C@H](C)CN([C@H](C)CO)C(=O)c2cc(NC(=O)C3CCCCC3)ccc2O1`, > 35 µM (inactive).
